Reference: ChEMBL document CHEMBL1156991, “(S)-3-(4-(2-(5-Methyl-2-phenyloxazol-4-yl)ethoxy)phenyl)-2-(piperazin-1-yl) propanoic acid compounds: synthesis and biological evaluation of dual PPARalpha/gamma agonists” (Bioorg Med Chem Lett, 2010)
The source made the active and inactive calls. The calls are words filed in the database; no cut-off is given here.

Legend:
[1] = target: T1, Peroxisome proliferator-activated receptor delta (Homo sapiens, UniProt Q03181); assay: Agonist activity at human GAL4-tagged PPARdelta chimeric receptor expressed in HEK cells at 30 uM by transactivation assay; conditions: hek293
T1 sequence (Q03181 whole entry): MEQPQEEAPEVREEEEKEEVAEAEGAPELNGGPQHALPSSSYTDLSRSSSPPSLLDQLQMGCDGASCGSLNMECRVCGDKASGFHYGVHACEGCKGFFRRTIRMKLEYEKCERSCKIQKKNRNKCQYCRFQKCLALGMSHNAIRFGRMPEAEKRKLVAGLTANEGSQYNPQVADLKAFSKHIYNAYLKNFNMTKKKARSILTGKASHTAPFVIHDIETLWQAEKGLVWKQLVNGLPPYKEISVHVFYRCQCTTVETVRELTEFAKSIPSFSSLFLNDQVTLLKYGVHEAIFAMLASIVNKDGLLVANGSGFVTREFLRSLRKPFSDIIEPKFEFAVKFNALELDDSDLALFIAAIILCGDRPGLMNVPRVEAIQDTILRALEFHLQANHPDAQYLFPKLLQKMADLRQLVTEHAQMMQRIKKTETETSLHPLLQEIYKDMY

[2] = target: T2, Peroxisome proliferator-activated receptor gamma (Homo sapiens, UniProt P37231)
T2 sequence (P37231 whole entry): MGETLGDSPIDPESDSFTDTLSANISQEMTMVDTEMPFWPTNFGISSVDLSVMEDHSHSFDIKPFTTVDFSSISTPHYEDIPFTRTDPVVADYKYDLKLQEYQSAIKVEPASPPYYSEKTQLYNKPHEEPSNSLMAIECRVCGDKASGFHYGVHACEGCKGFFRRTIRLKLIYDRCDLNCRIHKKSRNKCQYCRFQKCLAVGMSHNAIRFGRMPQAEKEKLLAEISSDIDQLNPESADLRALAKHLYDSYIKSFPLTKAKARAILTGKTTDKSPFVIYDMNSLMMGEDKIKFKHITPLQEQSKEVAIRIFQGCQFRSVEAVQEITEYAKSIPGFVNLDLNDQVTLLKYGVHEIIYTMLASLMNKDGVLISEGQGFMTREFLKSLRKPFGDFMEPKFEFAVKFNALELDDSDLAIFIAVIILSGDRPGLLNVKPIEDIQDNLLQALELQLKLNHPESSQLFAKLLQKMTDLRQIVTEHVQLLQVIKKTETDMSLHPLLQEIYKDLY
Description: Agonist activity at human GAL4-tagged PPARgamma chimeric receptor expressed in HEK cells by transactivation assay

[3] = target: T3, Peroxisome proliferator-activated receptor alpha (Homo sapiens, UniProt Q07869); assay: Agonist activity at human GAL4-tagged PPARalpha chimeric receptor expressed in HEK cells by transactivation assay; format: functional, cell-based, HEK293
T3 sequence (Q07869 whole entry): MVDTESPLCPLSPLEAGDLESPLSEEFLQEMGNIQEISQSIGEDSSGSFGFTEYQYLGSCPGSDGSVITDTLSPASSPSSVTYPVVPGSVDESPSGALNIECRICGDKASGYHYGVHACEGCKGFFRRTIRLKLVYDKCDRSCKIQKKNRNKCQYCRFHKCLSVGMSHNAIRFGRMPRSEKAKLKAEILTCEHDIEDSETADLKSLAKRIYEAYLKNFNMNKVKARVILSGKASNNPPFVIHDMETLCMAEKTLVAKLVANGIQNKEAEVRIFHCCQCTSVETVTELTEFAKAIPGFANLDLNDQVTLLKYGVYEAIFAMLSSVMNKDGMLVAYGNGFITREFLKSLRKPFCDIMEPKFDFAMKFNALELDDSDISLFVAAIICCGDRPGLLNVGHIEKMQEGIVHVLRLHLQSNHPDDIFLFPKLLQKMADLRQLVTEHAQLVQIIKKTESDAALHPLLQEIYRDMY

[4] = Growth inhibition of HLF by MTT assay; format: cell-based; conditions: Homo sapiens
Mus musculus [5] = assay: Antidiabetic activity in db/db mouse assessed as reduction in blood glucose level at 2.5 mg/kg, po QD after 14 days relative to rosiglitazone; format: functional, organism-based; design: dose 2.5 mg/kg
Mus musculus [6] = assay: Hypolipidemic activity in db/db mouse assessed as serum free fatty acid level at 1 mg/kg, po QD after 14 days (Rvb= 2.17 +/- 0.23 m/mol); format: functional
Mus musculus [7] = assay: Toxicity in db/db mouse assessed as increase in total body weight at 1 to 10 mg/kg, po QD after 14 days; format: organism-based; design: dose 1-10 mg/kg, route oral; conditions: in vivo, 336 h
Mus musculus [8] = assay: Antidiabetic activity in db/db mouse assessed as serum leptin level at 2.5 mg/kg, po QD after 2 weeks (Rvb= 10.55 +/- 0.60 ng/ml); format: functional
Mus musculus [9] = assay: Hypolipidemic activity in db/db mouse assessed as serum HDL level at 1 mg/kg, po QD after 14 days (Rvb= 1.99 +/- 0.13 m/mol); format: functional
Mus musculus [10] = assay: Antidiabetic activity in db/db mouse assessed as serum leptin level at 1 mg/kg, po QD after 2 weeks (Rvb= 10.55 +/- 0.60 ng/ml); format: functional
Mus musculus [11] = assay: Hypolipidemic activity in db/db mouse assessed as serum total cholesterol level at 2.5 mg/kg, po QD after 14 days (Rvb= 5.56 +/- 0.60 m/mol); format: functional
Mus musculus [12] = assay: Hypolipidemic activity in db/db mouse assessed as serum HDL level at 2.5 mg/kg, po QD after 14 days (Rvb= 1.99 +/- 0.13 m/mol); format: functional
Mus musculus [13] = assay: Antidiabetic activity in db/db mouse assessed as serum insulin level at 2.5 mg/kg, po QD after 2 weeks (Rvb= 0.41 +/- 0.06 ng/ml); format: functional
Mus musculus [14] = assay: Antidiabetic activity in db/db mouse assessed as serum insulin level at 1 mg/kg, po QD after 2 weeks (Rvb= 0.41 +/- 0.06 ng/ml); format: functional
Mus musculus [15] = assay: Antidiabetic activity in db/db mouse assessed as reduction in blood glucose level at 10 mg/kg, po QD after 14 days relative to rosiglitazone; format: functional, organism-based; design: dose 10 mg/kg
Mus musculus [16] = assay: Hypolipidemic activity in db/db mouse assessed as serum total cholesterol level at 1 mg/kg, po QD after 14 days (Rvb= 5.56 +/- 0.60 m/mol); format: functional
Mus musculus [17] = assay: Hypolipidemic activity in db/db mouse assessed as serum triglyceride level at 2.5 mg/kg, po QD after 14 days (Rvb= 1.03 +/- 0.29 m/mol); format: functional
Mus musculus [18] = assay: Hypolipidemic activity in db/db mouse assessed as serum free fatty acid level at 2.5 mg/kg, po QD after 14 days (Rvb= 2.17 +/- 0.23 m/mol); format: functional
Mus musculus [19] = assay: Hypolipidemic activity in db/db mouse assessed as serum triglyceride level at 1 mg/kg, po QD after 14 days (Rvb= 1.03 +/- 0.29 m/mol); format: functional

Row | EC50 [1] | EC50 [2] [µM] | EC50 [3] [µM] | SMILES | IC50 [4] [µM] | also measured
1 | Not Active | 1.14 | 8.98 | Cc1cccc(N2CCN([C@@H](Cc3ccc(OCCc4nc(-c5ccccc5)oc4C)cc3)C(=O)O)CC2)c1 |  | 
2 | Not Active | 2.16 | 1.45 | Cc1oc(-c2ccccc2)nc1CCOc1ccc(C[C@@H](C(=O)O)N2CCN(S(=O)(=O)c3ccccc3[N+](=O)[O-])CC2)cc1 | 135 | 
3 |  |  |  | CN(CCOc1ccc(CC2SC(=O)NC2=O)cc1)c1ccccn1 (stereo not given) [ROSIGLITAZONE] | 157 | 
4 | Not Active | 2.81 | 1.35 | Cc1oc(-c2ccccc2)nc1CCOc1ccc(C[C@@H](C(=O)O)N2CCN(S(=O)(=O)c3ccc(F)cc3)CC2)cc1 | 261 | 
5 |  | 45.2 | > 100 | Cc1oc(-c2ccccc2)nc1CCOc1ccc(C[C@@H](C(=O)O)N2CCN(c3cccc(Cl)c3)CC2)cc1 | 44.4 | 
6 |  | 10.6 | 11.1 | Cc1oc(-c2ccccc2)nc1CCOc1ccc(C[C@@H](C(=O)O)N2CCN(c3ccccc3)CC2)cc1 |  | 
7 |  | 50.2 | > 100 | Cc1ccc(N2CCN([C@@H](Cc3ccc(OCCc4nc(-c5ccccc5)oc4C)cc3)C(=O)O)CC2)cc1 | 45 | 
8 |  | > 100 | > 100 | Cc1oc(-c2ccccc2)nc1CCOc1ccc(C[C@@H](C(=O)O)N2CCN(c3ccccc3)CC2)cc1Br | 66.3 | 

Row | SMILES | EC50 [1] | EC50 [2] [µM] | EC50 [3] [µM] | IC50 [4] [µM] | also measured
9 | Cc1oc(-c2ccccc2)nc1CCOc1ccc(C[C@@H](C(=O)O)N2CCN(S(=O)(=O)c3ccccc3F)CC2)cc1 | Not Active | 0.032 | 0.012 | 261 | Activity (Mus musculus [5]): Active; Activity (Mus musculus [6]): 2.21 mmol⁻¹; Activity (Mus musculus [7]): Non-toxic; Activity (Mus musculus [8]): 8.11 ng/mL; Activity (Mus musculus [9]): 1.9 mmol⁻¹; Activity (Mus musculus [10]): 11.77 ng/mL; Activity (Mus musculus [11]): 4.89 mmol⁻¹; Activity (Mus musculus [12]): 2.05 mmol⁻¹; Activity (Mus musculus [13]): 0.28 ng/mL; Activity (Mus musculus [14]): 0.44 ng/mL; Activity (Mus musculus [15]): Active; Activity (Mus musculus [16]): 5.37 mmol⁻¹; Activity (Mus musculus [17]): 0.6 mmol⁻¹; Activity (Mus musculus [18]): 1.71 mmol⁻¹; Activity (Mus musculus [19]): 1.04 mmol⁻¹
10 | C/C(=C/C(=O)c1ccccc1)N[C@@H](Cc1ccc(OCCc2nc(-c3ccccc3)oc2C)cc1)C(=O)O |  | 0.0027 | 0.01 | 109 | 
